Test results reported in PubChem BioAssay (NCI).
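Values below derive from 48-hour exposures of cells grown in 96-well plates, with endpoints linearly interpolated between the two concentrations bracketing the appropriate inhibition level. TGI marks complete inhibition of growth.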

How the values were obtained:
Assay in all cases: growth of human tumour cells (NCI), 48 h
MDA-MB-435 = system: MDA-MB-435
SR leukemia = system: SR leukemia
A549 NSCLC = system: A549 NSCLC
HOP-62 NSCLC = system: HOP-62 NSCLC
OVCAR-3 ovarian = system: OVCAR-3 ovarian
UACC-257 melanoma = system: UACC-257 melanoma
MALME-3M melanoma = system: MALME-3M melanoma
ACHN renal = system: ACHN renal
RXF 393 renal = system: RXF 393 renal
HCC-2998 colon = system: HCC-2998 colon
U251 CNS = system: U251 CNS
SK-OV-3 ovarian = system: SK-OV-3 ovarian
786-0 renal = system: 786-0 renal
SK-MEL-28 melanoma = system: SK-MEL-28 melanoma
HOP-92 NSCLC = system: HOP-92 NSCLC
SN12C renal = system: SN12C renal
SF-295 CNS = system: SF-295 CNS
MDA-N = system: MDA-N

SMILES	TGI (MDA-MB-435)	TGI (SR leukemia)	TGI (A549 NSCLC)	TGI (HOP-62 NSCLC)	TGI (OVCAR-3 ovarian)	TGI (UACC-257 melanoma)	TGI (MALME-3M melanoma)	TGI (ACHN renal)	TGI (RXF 393 renal)	TGI (HCC-2998 colon)	TGI (U251 CNS)	TGI (SK-OV-3 ovarian)	TGI (786-0 renal)	TGI (SK-MEL-28 melanoma)	TGI (HOP-92 NSCLC)	TGI (SN12C renal)	TGI (SF-295 CNS)	TGI (MDA-N)
COc1cc(O)cc(O)c1C(=O)CC(Cl)(Cl)Cl	> 100 µM	> 100 µM	> 100 µM	> 100 µM	> 100 µM	> 100 µM	> 100 µM	> 100 µM	> 100 µM	> 100 µM	> 100 µM	> 100 µM	> 100 µM	> 100 µM	> 100 µM	> 100 µM	> 100 µM	–
O=C(CC(c1ccccc1)C(C(=O)c1ccncc1)C(CC(=O)c1ccncc1)c1ccccc1)c1ccncc1 (centres undefined)	> 100 µM	> 100 µM	> 100 µM	> 100 µM	> 100 µM	> 100 µM	> 100 µM	> 100 µM	–	> 100 µM	> 100 µM	61.1 µM	> 100 µM	> 100 µM	> 100 µM	–	70.3 µM	–
O=C1CCC2(c3ccc(Cl)cc3)Nc3ncncc3N12 (centres undefined)	> 10 µM	–	> 10 µM	–	> 10 µM	> 10 µM	> 10 µM	> 10 µM	–	> 10 µM	> 10 µM	> 10 µM	> 10 µM	–	> 10 µM	> 10 µM	> 10 µM	> 10 µM
O=S(c1ccc(Cl)cc1)c1ccccc1C1=NCCN1 (centres undefined)	> 100 µM	–	> 100 µM	> 100 µM	> 100 µM	> 100 µM	> 100 µM	> 100 µM	> 100 µM	> 100 µM	> 100 µM	> 100 µM	> 100 µM	> 100 µM	–	> 100 µM	> 100 µM	> 100 µM
Cc1ccc(NC(=O)/C(=N/NC(=O)C[N+](C)(C)C)c2nc3ccccc3[nH]c2=O)cc1	–	> 100 µM	> 100 µM	> 100 µM	> 100 µM	> 100 µM	> 100 µM	> 100 µM	> 100 µM	> 100 µM	85.3 µM	> 100 µM	> 100 µM	> 100 µM	> 100 µM	> 100 µM	> 100 µM	–
N#Cc1ccc2[nH]c3c(c2c1)CC(=O)Nc1ccccc1-3	> 100 µM	> 100 µM	> 100 µM	> 100 µM	> 100 µM	> 100 µM	–	> 100 µM	> 100 µM	> 100 µM	> 100 µM	–	> 100 µM	> 100 µM	> 100 µM	–	> 100 µM	–
CCOC1NC(/N=C/c2ccc(OC)cc2)=C(C#N)C1C#N (centres undefined)	> 100 µM	> 100 µM	> 100 µM	> 100 µM	> 100 µM	> 100 µM	> 100 µM	> 100 µM	> 100 µM	> 100 µM	> 100 µM	> 100 µM	> 100 µM	> 100 µM	–	> 100 µM	> 100 µM	> 100 µM
